Source: patent US11179391B2, “Compound with kinase inhibitory activity and preparation method and use thereof” (priority 2017, dated 2021)

Key:
Format in all cases: biochemical
[1] = biological target: CDK7/CyclinH/MAT1 (Homo sapiens, UniProt P50613); assay: Determination of CDK activity (Caliper mobility shift, FAM-P8 peptide): CDK7; details: CDK7/CyclinH/MAT1; read-out: CDK7 enzymatic inhibitory activity (IC50)
Protocol: (§1) In vitro, CDK (CDK4, CDK6, CDK1, CDK2, CDK7, and CDK9) kinase activity was tested by the following method.
(§2) CDK and raw materials used here: CDK4/CycD3 (Carna, Cat. No 04-105, Lot. No 10CBS-0429 C, GST-CDK4(1-303end)/GST-CycD3(1-292end)); CDK6/cycD3 (Carna, Cat. No 04-107, Lot. No 09CBS-0622K, GST-CDK6(1-326(end))); CDK1/CyclinB (Millipore, Cat. 14-450k, Lot. No 25729U, His-CDK1+GST-cyclinB); CDK2/CycA2 (Carna, Cat. No 04-103, Lot. No 06CBS-3024, GST-CDK2 (1-298(end))); CDK7/CyclinH/MAT1 (Millipore, Cat. No 14-476M, Lot. No WAB0365-A, His-CDK7+GST-MAT1+cyclinH); CDK9/cyclinTl (Millipore, Cat. No 14-685K, Lot. No. 2476163-A, His-CDK9+cyclinTl); Peptide FAM-P8 (GL Biochem, Cat. No. 112396, Lot. No. P100804-XZ112396); ATP (Sigma, Cat. No. A7699-1G, CAS No. 987-65-5); DMSO (Sigma, Cat. No. D2650, Lot. No. 474382); EDTA (Sigma, Cat. No. E5134, CAS No. 60-00-4); 96-well plate (Corning, Cat. No. 3365, Lot. No. 22008026); 384-well plate (Corning, Cat. No. 3573, Lot. No. 12608008); Staurosporine (Sigma, Cat. No. S4400-1MG, Lot. No. 046K4080).
(§3) 1. Prepared 1× Kinase Buffer and Stop Buffer for the Test
(§4) 3) 1× Kinase Base Buffer (CDK7 and 9).
(§5) 1) Diluted the compound to 50 times of the maximum concentration with 100% DMSO. For example, if the desired maximum inhibitory concentration is 10 μM, then a DMSO solution of 500 μM concentration is required.
(§6) 2) Transferred the compound to a 96-well plate and serially diluted the compound from a 100% DMSO solution at a ratio of 30 μm to 60 μm for a total of 10 concentrations gradients. 3) Transferred 100 μm of 100% DMSO to two empty wells as a no compound control and a no enzyme control.
(§7) 4) Prepared intermediate plate and transferred the compound of 10 μm concentration from the original plate to the intermediate plate, and then 90 μm of 1× kinase buffer was added and mixed by shaking for 10 min.
(§8) 4) Preparing intermediate plate and transferred the compound of […] concentration from the original plate to the intermediate plate, and then 90 μm of 1× kinase buffer was added and mixed by shaking for 10 min.
(§9) 1) Transferred 5 μm of each compound from the 96-well intermediate plate to a 384-well plate. For example, A1 of the 96-well plate was transferred to A1 and A2 of the 384-well plate. A2 of the 96-well plate was transferred to A3 and A4 of the 384-well plate, and so on.
(§10) 1) Prepared a 2.5× enzyme solution: added kinase into 1× kinase base buffer.
(§11) 2) Prepared a 2.5× peptide solution: added FAM-labeled peptide and ATP into the 1× kinase base buffer.
(§12) 3) Transferred the 2.5× enzyme solution to the assay plate: Assay plate already contained 5 μm of 10% DMSO and transferred 10 μm of 2.5× enzyme solution to each well.
(§13) 4) Incubated at room temperature for 10 min.
(§14) 5) Transferred the 2.5× peptide solution to the assay plate: added 10 μm of 2.5× peptide solution to each well of the 384-well assay plate.
(§15) 6) Kinase reaction and termination: incubated at 28° C. for a specified period and added 25 μm of stop buffer to stop the reaction.
(§16) 5. Caliper Reading: Collect Data on Caliper.
(§17) 1) Copied conversion data from Caliper program and Converted conversion values to inhibition values: Inhibition rate (%)=(1−OD value of the compound-OD value of the control well)/(OD value of the control empty-OD value of the control well)*100%.
(§18) 2) Fitted the data in XLFit excel add-in version 4.3.1 to give the corresponding IC50 values.

[2] = biological target: CDK9/cyclinTl (Homo sapiens, UniProt P50750); assay: Determination of CDK activity (Caliper mobility shift, FAM-P8 peptide): CDK9; details: CDK9/cyclinTl; read-out: CDK9 enzymatic inhibitory activity (IC50)
Protocol: as §1, §3, §4, §5, §6
(§19) 1) Transferred 5 μm of each compound from the 96-well intermediate plate to a 384-well plate. […] A2 of the 96-well plate was transferred to A3 and A4 of the 384-well plate, and so on.
as §10, §11, §12, §13, §14, §15, §16, §17, §18

[3] = biological target: CDK1/CyclinB (Homo sapiens, UniProt P06493); assay: Determination of CDK activity (Caliper mobility shift, FAM-P8 peptide): CDK1; details: CDK1/CyclinB; read-out: CDK1 enzymatic inhibitory activity (IC50)
Protocol: as §1, §3
(§20) 1) 1× Kinase Base Buffer (CDK1, 2, and 6).
as §5, §6, §19, §10, §11, §12, §13, §14, §15, §16, §17, §18

[4] = biological target: CDK4/CycD3 (Homo sapiens, UniProt P11802); assay: Determination of CDK activity (Caliper mobility shift, FAM-P8 peptide): CDK4; details: CDK4/CycD3; read-out: CDK4 enzymatic inhibitory activity (IC50)
Protocol: as §1, §2, §3
2) 1× Kinase Base Buffer (CDK4).
as §5, §6, §7, §8, §9, §10, §11, §12, §13, §14, §15, §16, §17, §18

[5] = biological target: CDK6/cycD3 (Homo sapiens, UniProt Q00534); assay: Determination of CDK activity (Caliper mobility shift, FAM-P8 peptide): CDK6; details: CDK6/cycD3; read-out: CDK6 enzymatic inhibitory activity (IC50)
Protocol: as §1, §2, §3, §20, §5, §6, §7, §8, §9, §10, §11, §12, §13, §14, §15, §16, §17, §18

[6] = biological target: CDK2/CycA2 (Homo sapiens, UniProt P24941); assay: Determination of CDK activity (Caliper mobility shift, FAM-P8 peptide): CDK2; details: CDK2/CycA2; read-out: CDK2 enzymatic inhibitory activity (IC50)
Protocol: as §1, §3, §20, §5, §6, §19, §10, §11, §12, §13, §14, §15, §16, §17, §18

Sequence of CDK6/cycD3 (Q00534 whole entry): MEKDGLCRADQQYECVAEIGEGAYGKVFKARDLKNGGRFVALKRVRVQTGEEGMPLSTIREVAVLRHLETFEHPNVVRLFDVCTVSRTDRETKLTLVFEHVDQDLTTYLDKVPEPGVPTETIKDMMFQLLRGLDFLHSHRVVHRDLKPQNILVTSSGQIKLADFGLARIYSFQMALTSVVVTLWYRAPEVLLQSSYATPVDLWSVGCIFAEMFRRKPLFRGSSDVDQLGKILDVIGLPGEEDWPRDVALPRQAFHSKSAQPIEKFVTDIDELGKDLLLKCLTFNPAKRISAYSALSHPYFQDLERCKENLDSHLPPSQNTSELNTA
Sequence of CDK6/cycD3 (P30281 whole entry partner): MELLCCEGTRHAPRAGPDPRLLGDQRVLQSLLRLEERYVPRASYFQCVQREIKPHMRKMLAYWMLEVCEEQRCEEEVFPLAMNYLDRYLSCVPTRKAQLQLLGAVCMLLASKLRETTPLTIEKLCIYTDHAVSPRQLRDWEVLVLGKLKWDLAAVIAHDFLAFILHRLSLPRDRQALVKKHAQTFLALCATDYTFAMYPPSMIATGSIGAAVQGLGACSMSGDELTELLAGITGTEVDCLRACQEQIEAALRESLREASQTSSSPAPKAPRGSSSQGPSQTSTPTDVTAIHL
Sequence of CDK9/cyclinTl (P50750 whole entry): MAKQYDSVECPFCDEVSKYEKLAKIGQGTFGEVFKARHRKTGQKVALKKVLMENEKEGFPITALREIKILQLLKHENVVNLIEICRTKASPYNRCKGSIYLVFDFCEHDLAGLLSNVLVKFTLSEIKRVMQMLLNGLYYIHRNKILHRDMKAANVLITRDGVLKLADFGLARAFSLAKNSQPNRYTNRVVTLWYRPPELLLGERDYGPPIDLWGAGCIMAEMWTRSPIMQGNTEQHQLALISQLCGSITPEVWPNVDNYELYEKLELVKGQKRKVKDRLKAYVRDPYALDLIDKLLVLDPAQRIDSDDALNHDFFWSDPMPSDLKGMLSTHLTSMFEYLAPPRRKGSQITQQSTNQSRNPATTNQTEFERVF
Sequence of CDK9/cyclinTl (O60563 whole entry partner): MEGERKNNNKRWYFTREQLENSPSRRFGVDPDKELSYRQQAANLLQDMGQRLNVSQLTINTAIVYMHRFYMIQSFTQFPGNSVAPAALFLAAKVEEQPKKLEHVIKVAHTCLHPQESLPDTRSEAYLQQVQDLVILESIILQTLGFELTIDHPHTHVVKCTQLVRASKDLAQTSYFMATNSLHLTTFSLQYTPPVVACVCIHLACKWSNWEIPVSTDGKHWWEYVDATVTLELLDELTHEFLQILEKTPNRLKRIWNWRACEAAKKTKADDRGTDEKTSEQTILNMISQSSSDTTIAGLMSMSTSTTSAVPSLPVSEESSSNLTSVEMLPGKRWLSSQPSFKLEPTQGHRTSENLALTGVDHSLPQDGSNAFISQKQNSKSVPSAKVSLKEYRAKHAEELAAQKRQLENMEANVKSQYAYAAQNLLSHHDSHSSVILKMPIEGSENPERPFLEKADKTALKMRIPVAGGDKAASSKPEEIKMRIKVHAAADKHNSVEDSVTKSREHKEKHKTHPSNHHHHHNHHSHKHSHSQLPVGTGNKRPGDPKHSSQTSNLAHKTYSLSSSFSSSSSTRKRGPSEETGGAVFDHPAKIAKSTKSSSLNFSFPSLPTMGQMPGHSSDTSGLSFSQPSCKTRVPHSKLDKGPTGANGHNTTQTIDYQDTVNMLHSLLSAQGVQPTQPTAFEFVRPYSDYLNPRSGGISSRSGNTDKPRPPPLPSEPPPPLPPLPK
Sequence of CDK1/CyclinB (P06493 whole entry): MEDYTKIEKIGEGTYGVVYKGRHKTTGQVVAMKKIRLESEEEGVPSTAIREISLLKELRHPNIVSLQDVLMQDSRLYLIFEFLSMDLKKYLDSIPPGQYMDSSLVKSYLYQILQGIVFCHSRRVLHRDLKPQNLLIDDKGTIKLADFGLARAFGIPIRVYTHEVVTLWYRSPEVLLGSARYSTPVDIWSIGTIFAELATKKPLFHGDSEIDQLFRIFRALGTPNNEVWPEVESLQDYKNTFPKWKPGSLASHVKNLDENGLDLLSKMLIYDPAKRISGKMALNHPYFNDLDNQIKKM
Sequence of CDK1/CyclinB (P14635 whole entry partner): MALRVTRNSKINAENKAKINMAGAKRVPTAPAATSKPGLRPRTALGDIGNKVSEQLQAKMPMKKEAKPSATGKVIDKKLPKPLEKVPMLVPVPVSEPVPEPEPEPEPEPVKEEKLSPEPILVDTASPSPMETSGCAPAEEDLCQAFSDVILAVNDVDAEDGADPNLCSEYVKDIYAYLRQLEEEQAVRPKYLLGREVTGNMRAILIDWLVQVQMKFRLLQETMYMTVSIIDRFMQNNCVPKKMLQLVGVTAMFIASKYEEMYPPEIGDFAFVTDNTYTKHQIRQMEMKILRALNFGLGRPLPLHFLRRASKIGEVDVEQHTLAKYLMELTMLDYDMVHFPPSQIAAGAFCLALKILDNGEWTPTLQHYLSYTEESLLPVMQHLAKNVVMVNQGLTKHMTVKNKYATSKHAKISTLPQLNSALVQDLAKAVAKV
Sequence of CDK7/CyclinH/MAT1 (P50613 whole entry): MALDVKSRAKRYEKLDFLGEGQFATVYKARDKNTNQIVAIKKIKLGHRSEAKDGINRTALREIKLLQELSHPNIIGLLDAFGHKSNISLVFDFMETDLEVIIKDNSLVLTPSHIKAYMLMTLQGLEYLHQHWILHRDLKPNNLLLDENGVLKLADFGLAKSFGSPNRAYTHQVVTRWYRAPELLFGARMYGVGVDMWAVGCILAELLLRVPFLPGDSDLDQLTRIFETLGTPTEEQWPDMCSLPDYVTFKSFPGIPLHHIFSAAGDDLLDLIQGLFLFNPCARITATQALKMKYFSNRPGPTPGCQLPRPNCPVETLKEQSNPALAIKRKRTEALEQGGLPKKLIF
Sequence of CDK7/CyclinH/MAT1 (P51946 whole entry partner): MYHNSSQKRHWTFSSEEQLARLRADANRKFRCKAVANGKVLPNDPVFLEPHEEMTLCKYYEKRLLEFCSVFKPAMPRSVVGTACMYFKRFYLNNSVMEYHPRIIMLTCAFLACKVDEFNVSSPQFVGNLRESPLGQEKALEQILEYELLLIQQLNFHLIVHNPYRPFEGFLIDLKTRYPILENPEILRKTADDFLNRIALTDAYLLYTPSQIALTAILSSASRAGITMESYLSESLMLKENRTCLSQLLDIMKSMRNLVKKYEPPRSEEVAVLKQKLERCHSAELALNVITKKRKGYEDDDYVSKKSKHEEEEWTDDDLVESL
Sequence of CDK7/CyclinH/MAT1 (P51948 whole entry partner): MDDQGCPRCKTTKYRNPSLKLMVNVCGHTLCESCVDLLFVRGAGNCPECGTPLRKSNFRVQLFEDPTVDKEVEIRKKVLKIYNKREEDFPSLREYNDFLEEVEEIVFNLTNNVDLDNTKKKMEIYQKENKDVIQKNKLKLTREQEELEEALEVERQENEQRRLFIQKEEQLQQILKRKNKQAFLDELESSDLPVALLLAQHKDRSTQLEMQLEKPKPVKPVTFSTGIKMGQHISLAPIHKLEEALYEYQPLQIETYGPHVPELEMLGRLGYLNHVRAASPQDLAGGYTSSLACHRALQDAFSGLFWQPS
Sequence of CDK4/CycD3 (P11802 whole entry): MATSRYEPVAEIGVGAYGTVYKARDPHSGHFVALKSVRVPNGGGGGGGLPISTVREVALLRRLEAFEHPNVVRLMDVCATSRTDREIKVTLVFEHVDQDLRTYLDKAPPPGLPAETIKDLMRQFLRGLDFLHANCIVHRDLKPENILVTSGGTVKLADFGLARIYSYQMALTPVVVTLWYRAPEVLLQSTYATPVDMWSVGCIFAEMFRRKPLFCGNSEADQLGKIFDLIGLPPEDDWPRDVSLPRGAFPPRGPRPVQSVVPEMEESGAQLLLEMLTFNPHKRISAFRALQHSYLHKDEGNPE
Sequence of CDK4/CycD3 (P30281 whole entry partner): as the sequence (P30281 whole entry partner) above

SMILES | IC50 [1] | IC50 [2] | IC50 [3] | IC50 [4] | IC50 [5] | IC50 [6]
CCN1CCC(C(C)c2ccc(Nc3ncc(F)c(-c4cc(F)c5nc(C)n(C(C)C)c5c4)n3)nc2)CC1 (single isomer, unassigned) [Example 18, (R or S)—N-(5-(1-(1-ethylpiperidin-4-yl)ethyl)pyridin-2-yl)-5-fluoro-4-(4-fluoro-1-isopropyl-2-methyl-1H-benzo[d]imidazol-6-yl) pyrimidin-2-amine] | 1 to 10 µM | 0.5 to 1 µM | 0.5 to 1 µM | < 0.1 µM | 0.1 to 0.5 µM | 0.1 to 0.5 µM
CCN1CCC(C(OC(C)=O)c2ccc(Nc3ncc(F)c(-c4cc(F)c5nc(C)n(C(C)C)c5c4)n3)nc2)CC1 (single isomer, unassigned) [Example 72, (R or S)-(1-ethylpiperidin-4-yl) (6-((5-fluoro-4-(4-fluoro-1-isopropyl-2-methyl-1H-benzo[d]imidazol-6-yl)pyrimidin-2-yl)amino)pyridin-3-yl) methyl acetate] | 1 to 10 µM | 0.1 to 0.5 µM | 0.1 to 0.5 µM | < 0.1 µM | < 0.1 µM | < 0.1 µM
COCCCN1CCC([C@@H](C)c2ccc(Nc3ncc(F)c(-c4cc(F)c5nc(C)n(C(C)C)c5c4)n3)nc2)CC1 [Example 81] | 1 to 10 µM | 0.1 to 0.5 µM | 0.1 to 0.5 µM | < 0.1 µM | < 0.1 µM | < 0.1 µM
Cc1nc2c(F)cc(-c3nc(Nc4ccc(C=C5CCN(C)CC5)cn4)ncc3F)cc2n1C(C)C [Example 60] | 1 to 10 µM | 0.1 to 0.5 µM | 0.5 to 1 µM | < 0.1 µM | 0.1 to 0.5 µM | 0.1 to 0.5 µM
CCN1CCC(C(O)c2ccc(Nc3ncc(F)c(-c4cc(F)c5nc(C)n(C(C)C)c5c4)n3)nc2)CC1 (single isomer, unassigned) [Example 41, (R or S)-(1-ethylpiperidin-4-yl)(6-((5-fluoro-4-(4-fluoro-1-isopropyl-2-methyl-1H-benzo [d]imidazol-6-yl)pyrimidin-2-yl)amino)pyridin-3-yl) methanol] | 0.5 to 1 µM | 0.1 to 0.5 µM | 0.1 to 0.5 µM | < 0.1 µM | < 0.1 µM | < 0.1 µM
Cc1nc2c(F)cc(-c3nc(Nc4ccc(C=C5CCN(CC(F)F)CC5)cn4)ncc3F)cc2n1C(C)C [Example 69] | 1 to 10 µM | 0.1 to 0.5 µM | 0.1 to 0.5 µM | < 0.1 µM | < 0.1 µM | < 0.1 µM
CC(=C1CCN(C)CC1)c1ccc(Nc2ncc(F)c(-c3cc(F)c4nc(C)n(C(C)C)c4c3)n2)nc1 [Example 62] | 1 to 10 µM | 0.5 to 1 µM | 0.5 to 1 µM | < 0.1 µM | 0.5 to 1 µM | 0.1 to 0.5 µM
COCCN1CCC([C@@H](C)c2ccc(Nc3ncc(F)c(-c4cc(F)c5nc(C)n(C(C)C)c5c4)n3)nc2)CC1 (single isomer, unassigned) [Example 79] | 1 to 10 µM | 0.1 to 0.5 µM | 0.1 to 0.5 µM | < 0.1 µM | < 0.1 µM | < 0.1 µM
CCC(c1ccc(Nc2ncc(F)c(-c3cc(F)c4nc(C)n(C(C)C)c4c3)n2)nc1)N1CCN(CC)CC1 (racemic) [Example 1, N-(5-(1-(4-ethylpiperazin-1-yl)propyl)pyridin-2-yl)-5-fluoro-4-(4-fluoro-1-isopropyl-2-methyl-1H-benzo[d]imidazol-6-yl)pyrimidin-2-amine] | 1 to 10 µM | 1 to 10 µM | 10 to 100 µM | < 0.1 µM | 1 to 10 µM | 1 to 10 µM
CC[C@H](c1ccc(Nc2ncc(F)c(-c3cc(F)c4nc(C)n(C(C)C)c4c3)n2)nc1)N1CCNCC1 [Example 5] | 1 to 10 µM | 10 to 100 µM | 10 to 100 µM | < 0.1 µM | 1 to 10 µM | 10 to 100 µM
Cc1nc2c(F)cc(-c3nc(Nc4ccc([C@H](O)C5CCNCC5)cn4)ncc3F)cc2n1C(C)C [Example 43] | 0.5 to 1 µM | 0.1 to 0.5 µM | 0.1 to 0.5 µM | < 0.1 µM | 0.1 to 0.5 µM | 0.1 to 0.5 µM
CCN1CCC(=C(C)c2ccc(Nc3ncc(F)c(-c4cc(F)c5nc(C)n(C(C)C)c5c4)n3)nc2)CC1 [Example 58, N-(5-(1-(1-ethylpiperidin-4-ylidene)ethyl)pyridin-2-yl)-5-fluoro-4-(4-fluoro-1-isopropyl-2-methyl-1H-benzo[d]imidazol-6-yl)pyrimidin-2-amine] | 1 to 10 µM | 0.1 to 0.5 µM | 0.5 to 1 µM | < 0.1 µM | 0.1 to 0.5 µM | 0.1 to 0.5 µM
Cc1nc2c(F)cc(-c3nc(Nc4ccc([C@@H](O)C5CCN(C)CC5)cn4)ncc3F)cc2n1C(C)C [Example 50] | 0.1 to 0.5 µM | 0.1 to 0.5 µM | < 0.1 µM | < 0.1 µM | 0.1 to 0.5 µM | < 0.1 µM
C=C(c1ccc(Nc2ncc(F)c(-c3cc(F)c4nc(C)n(C(C)C)c4c3)n2)nc1)N1CCN(CC)CC1 [Example 36] | 1 to 10 µM | 0.5 to 1 µM | 0.5 to 1 µM | 0.1 to 0.5 µM | 0.1 to 0.5 µM | 0.5 to 1 µM
